Laboratory results as given in patent US20050250737A1, “Therapeutic ophthalmic compositions containing retinal friendly excipients and related methods” (Allergan, Inc., priority 2003, published 2005).
“Also recorded” adds a separate entry of the source.

Tests used:
[1] = Osmolarity of excipient-containing incubating solutions; type: physicochemical
Protocol: Osmolarity was measured using osmometer type 13/13DR from Roebling (Berlin, GR).
(§1) For each concentration of tested compound, pH and osmolarity parameters were measured.

ARPE-19 cells [2] = experiment: MTT cell viability assay on ARPE-19 cells; settings: for Reduction of cell survival: 0.1% (w/v), 24, 48 and 72 hour time points
Description: Cell viability and cell morphology were examined to evaluate the toxicity of excipients on retinal pigment epithelial cells. The human retina cell line used in these experiments is the ARPE-19 cell line (human adult-derived retinal pigmented epithelial cells). […] They form tight-junctions with transepithelial resistance of monolayers (Dunn K C et al., supra). From a molecular standpoint, it appears that ARPE-19 express a huge pattern of genes similar to those expressed by human RPE from fresh explant which could account for their physiological function (Klimanskaya I. et al., “Derivation and comparative assessment of retinal pigment epithelium from human embryonic stem cells using transcriptomics”, Cloning and Stem Cells, 2004, 6(3):217-45).
ARPE-19 cells are widely used as a retinal model that resemble physiological properties of RPE cells. Similar methods of culturing ARPE-19 cells and cytotoxicity assays can be found in Yeung et al., “Cytotoxicity of triamcinolone on cultured human retinal pigment epithelial cells: comparison with dexamethasone and hydrocortisone”, Jpn J. Ophthalmol, 2004; 48:236-242. Cell viability and cell morphology were examined using conventional colormetric and visual methods. Viability and morphology measurements were obtained at 24 hours, 48 hours, and 72 hours after exposure to an excipient composition.
To assess cell viability, mitochondrial metabolism was quantified through conventional colorometric assays (i.e., the MTT assay). This calorimetric assay utilizes 3-(4,5-dimethylthiazol-2-yl)-2,5-diphenyltetrazolium bromide (MTT) and correlates mitochondrial metabolism and cell viability through measurement of dehydrogenase activity which converts a substrate into crystal. More specifically, the assay measures the activity of living cells through mitochondrial dehydrogenases. When dissolved in culture cell medium, MTT solution appears dark orange. Mitochondrial dehydrogenases of viable cells degrade MTT by cleaving the tetrazolium ring yielding to formation of a purple formazan crystal, which is insoluble in water. Crystals are subsequently dissolved in isopropanol solution. A resulting purple solution is spectrophotometrically measured. Cell viability is relative to amount of formazan and calculated as a percentage of remaining treated compared to non-treated cells.
Results from the MTT assay were expressed as a percentage of cell viability calculated using the following equation: % cell viability=ODtest/ODcontrol×100.
For each experiment, one concentration was performed in triplicate. Each point was spectrophotometrically read twice. Average of readings was calculated, then average from these 3 values was determined.
After 3 experiments were independently completed under the same conditions, a graph was plotted with cell viability expressed as a function of concentration (dose response) and for various incubation period (time course). The IC50 was then estimated based on the graphed data.
More specifically, cell density in 24-multiwell plates was observed on the day of the experiment to check if confluence of the cells was reached. Aliquots of MTT concentrated solutions were removed from a freezer at −20° C. and thawed at room temperature. Cell medium was warmed at 37° C. before use. Appropriated tubes for diluting compounds were prepared. Higher concentrations of each excipient agent was prepared. Serial dilution was then performed in cell medium (DMEM:F12+10% FBS).
Cell culture medium in the 24-well plate was removed using vacuum-pump. Cells were then stimulated with 0.5 ml final volume for each concentration of one given excipient agent. Distribution of the excipient-containing solution was performed using automated pipet-aid in sterile environment (under PSM) or not depending on time of compounds and duration of incubation.
After stimulation, cells were replaced in a CO2 incubator for the required time of exposure.

[3] = pH of excipient-containing incubating solutions; type: physicochemical
Protocol: as §1

ARPE-19 cells [4] = type: cell-based
Protocol: Cell morphology was visualized using light microscopy. Cell morphology observation using light microscopy permits determination of (i) cell number and density and (ii) whether or not cells in contact with an excipient agent display modified phenotype compared to a non-treated population of cells.
Cell morphology was analyzed in parallel by semi-quantitative scoring ranging from 5 to 1, from basal to lethal phenotype respectively, as shown in FIG. 23.
More specifically, cells were removed from an incubator for examination. Morphological shape of cells was visualized using a light microscope and CCD camera. Every 3 wells of a given concentration was observed through image analysis software. Then, a representative photograph describing the average appearance of cells was saved. The supernatant was either, kept for further predefined experiments to perform, or removed using vacuum-pump.
Resulting semi-quantitative scoring is represented as a function of time course and dose response. Score 5 : wild type phenotype of non-treated cells, 100% confluent adherent cells. This phenotype very much vary following post-seeding time. For example, at confluence ARPE-19 cells at 1 day appear well defined with visible outer membrane and dark grey cytoplasm. After 3 days of confluence, limits between cells become less visible and cells adopt a more hexagonal shape and constitute an epithelium-like uniform dense structure. Score 4: density <100%. Cell shape has changed, some spaces are present between cells, few cells possibly detached. Score 3: 80% <Cell density <40%. Spaces are sometimes present among cells, areas appears confluent while in others, cells detached. General cell shape starts showing non negligible alterations. Score 2: Cell density <50%. Cells adopt exclusively stressed appearance, presence of mass dead floating cells. Score 1: Cell density <10%. Presence of almost exclusively dead cells.
Based on quotation, each condition of the applied compound was given a score which allow to a morphology evolution profile to be prepared, ie. cell morphology as a function of compound concentration and time of exposure. […]

Row | Substance | Osmolarity of excipient dilution ([1]; 0.1% in culture medium) [mOsm] | Osmolarity of excipient dilution ([1]; 0.5% in culture medium) [mOsm] | Osmolarity of excipient dilution ([1]; 1% in culture medium) [mOsm] | Osmolarity of excipient dilution ([1]; 5% in culture medium) [mOsm] | Osmolarity of excipient dilution ([1]; 10% in culture medium) [mOsm] | Reduction of cell survival (ARPE-19 cells [2]) | pH of excipient dilution ([3]; 0.1% in culture medium) | pH of excipient dilution ([3]; 0.5% in culture medium) | pH of excipient dilution ([3]; 1% in culture medium) | pH of excipient dilution ([3]; 5% in culture medium) | pH of excipient dilution ([3]; 10% in culture medium) | pH of excipient dilution ([3]; 20% in culture medium) | also measured
1 | sulfobutyl ether 4 beta-cyclodextrin [Captisol] | 310 | 318 | 333 | 408 | 518 | 10-20% | 7.6 | 7.6 | 7.6 | 7.6 | 7.7 | 7.7 | Osmolarity of excipient dilution ([1]; 20% in culture medium, listed as Sulfobutylether 4 beta-CD): far exceeds physiological osmolarity range; Osmolarity of excipient dilution ([1]; 20% in culture medium, listed as Sulfobutylether 4beta-CD): 710 mOsm; Cell survival (% of the initial value) (ARPE-19 cells [2]; 5% (w/v)): 70-80%; Cell survival (ARPE-19 cells [2]; 10% (w/v), 24 hour time point): 50-60%
2 | hydroxypropyl beta-cyclodextrin [Kleptose®] | 309 | 317 | 325 | 375 | 459 | 20-30% | 7.6 | 7.6 | 7.5 | 7.5 | 7.5 | 7.6 | Osmolarity of excipient dilution ([1]; 20% in culture medium): 635 mOsm; Morphology limit concentration (%) (ARPE-19 cells [4]): 2.6-3%; Decrease of cell viability (ARPE-19 cells [2]): about 40%; Cell survival (% of the initial value) (ARPE-19 cells [2]; 1% (w/v)): about 70%; Cell survival (ARPE-19 cells [2]; 5% (w/v), 24 h): complete disappearance of living cells; also recorded: about 20%; IC50 (50% cell viability inhibition, MTT) (ARPE-19 cells [2]; ARPE-19, all incubation times 24-72 h, estimated from graph): about 2.2%; MTT IC50 (%) (ARPE-19 cells [2]; ARPE-19 cells, summary Table 3): 2.2-2.5%
3 | hydroxypropyl gamma-cyclodextrin [Cavasol] | – | – | – | – | – | ≤ 10% | 7.6 | 7.6 | 7.6 | 7.6 | 7.6 | 7.6 | Effect on both cell parameters (viability, morphology) (ARPE-19 cells [2]): no measurable effect on both cell parameters; Viable cells (ARPE-19 cells [2]): approximately 80%; Percentage of living cells (ARPE-19 cells [2]; 0.05 to 10%, after recovery (later than 24 h)): > 80%; Cell survival (% of the initial value) (ARPE-19 cells [2]; 10% (w/v)): about 80%; IC50 (cell viability), statement in words (ARPE-19 cells [2]; at the tested concentrations and incubation times): not possible to determine the IC50
